Data taken from patent publication US11434221B2, “Pyrazine-4-carbamate or -urea derivatives as herbicides” (Syngenta Participations AG, priority 2017, dated 2022).

What was measured:
Assay type in all cases: in vivo
Set-up in all cases: key: 5=total damage to plant; 0=no damage to plant
Lolium perenne (LOLPE) [1] = test: Post-emergence herbicidal activity, glasshouse pot test; settings: sprayed after 8 days cultivation, evaluated after 13 days
Experimental: (§1) Seeds of a variety of test species were sown in standard soil in pots: Triticum aestivium (TRZAW), Avena fatua (AVEFA), Alopecurus myosuroides (ALOMY), Echinochloa crus-galli (ECHCG), Lolium perenne (LOLPE), and Setaria faberi (SETFA). After 8 days cultivation (post-emergence) under controlled conditions in a glasshouse (at 24/16° C., day/night; 14 hours light; 65% humidity), the plants were sprayed with an aqueous spray solution derived from the formulation of the technical active ingredient in acetone/water (50:50) solution containing 0.5% Tween 20 (polyoxyethelyene sorbitan monolaurate, CAS RN 9005-64-5). The test plants were then grown in a glasshouse under controlled conditions (at 24/16° C., day/night; 14 hours light; 65% humidity) and watered twice daily. After 13 days, the test was evaluated (5=total damage to plant; 0=no damage to plant).

[2] = system: Triticum aestivium (TRZAW); test: as above; settings: sprayed after 8 days cultivation, evaluated after 13 days
Experimental: as §1

Setaria faberi (SETFA) [3] = test: as above; settings: sprayed after 8 days cultivation, evaluated after 13 days
Experimental: as §1

Avena fatua (AVEFA) [4] = test: as above; settings: sprayed after 8 days cultivation, evaluated after 13 days
Experimental: as §1

[5] = system: Alopecurus myosuroides (ALOMY); test: as above; settings: sprayed after 8 days cultivation, evaluated after 13 days
Experimental: as §1

[6] = system: Echinochloa crus-galli (ECHCG); test: as above; settings: sprayed after 8 days cultivation, evaluated after 13 days
Experimental: as §1

Lolium perenne (LOLPE) [7] = test: Pre-emergence herbicidal activity, glasshouse pot test; settings: sprayed one day after sowing, evaluated after 13 days
Experimental: as §1, with “After” for “After 8 days”, “for one day (pre-emergence)” for “(post-emergence)”

[8] = system: Triticum aestivium (TRZAW); test: as above; settings: sprayed one day after sowing, evaluated after 13 days
Experimental: as §1, with “After” for “After 8 days”, “for one day (pre-emergence)” for “(post-emergence)”

Setaria faberi (SETFA) [9] = test: as above; settings: sprayed one day after sowing, evaluated after 13 days
Experimental: as §1, with “After” for “After 8 days”, “for one day (pre-emergence)” for “(post-emergence)”

Avena fatua (AVEFA) [10] = test: as above; settings: sprayed one day after sowing, evaluated after 13 days
Experimental: as §1, with “After” for “After 8 days”, “for one day (pre-emergence)” for “(post-emergence)”

[11] = system: Alopecurus myosuroides (ALOMY); test: as above; settings: sprayed one day after sowing, evaluated after 13 days
Experimental: as §1, with “After” for “After 8 days”, “for one day (pre-emergence)” for “(post-emergence)”

[12] = system: Echinochloa crus-galli (ECHCG); test: as above; settings: sprayed one day after sowing, evaluated after 13 days
Experimental: as §1, with “After” for “After 8 days”, “for one day (pre-emergence)” for “(post-emergence)”

Row | SMILES | Control of weed species after post-emergence application, LOLPE (damage score 0-5) (Lolium perenne (LOLPE) [1]; Rate 1000 g/ha) | Control of weed species after post-emergence application, TRAZW (damage score 0-5) ([2]; Rate 1000 g/ha) | Control of weed species after post-emergence application, SETFA (damage score 0-5) (Setaria faberi (SETFA) [3]; Rate 1000 g/ha) | Control of weed species after post-emergence application, AVEFA (damage score 0-5) (Avena fatua (AVEFA) [4]; Rate 1000 g/ha) | Control of weed species after post-emergence application, ALOMY (damage score 0-5) ([5]; Rate 1000 g/ha) | Control of weed species after post-emergence application, ECHCG (damage score 0-5) ([6]; Rate 1000 g/ha) | Control of weed species after pre-emergence application, LOLPE (damage score 0-5) (Lolium perenne (LOLPE) [7]; Rate 1000 g/ha) | Control of weed species after pre-emergence application, TRAZW (damage score 0-5) ([8]; Rate 1000 g/ha) | Control of weed species after pre-emergence application, SETFA (damage score 0-5) (Setaria faberi (SETFA) [9]; Rate 1000 g/ha) | Control of weed species after pre-emergence application, AVEFA (damage score 0-5) (Avena fatua (AVEFA) [10]; Rate 1000 g/ha) | Control of weed species after pre-emergence application, ALOMY (damage score 0-5) ([11]; Rate 1000 g/ha) | Control of weed species after pre-emergence application, ECHCG (damage score 0-5) ([12]; Rate 1000 g/ha) | other results
1 | CC(C)(C)OC(=O)N(C(=O)OC(C)(C)C)c1ncc(-c2cncc(F)c2)nc1C(F)(F)F [Compound H5] | 2 | 1 | 5 | 3 | 0 | 5 | 1 | 0 | 5 | 2 | 0 | 5 | –
2 | CC(C)=Cc1nc(-c2cncc(F)c2)cnc1N(C(=O)OC(C)(C)C)C(=O)OC(C)(C)C [Compound H14] | 1 | 0 | 4 | 1 | 0 | 2 | 2 | 0 | 3 | 0 | 0 | 2 | –
3 | COc1nc(-c2cncc(F)c2)cnc1N(C(=O)OC(C)(C)C)C(=O)OC(C)(C)C [Compound H6] | 1 | 1 | 4 | 2 | 0 | 3 | 0 | 1 | 4 | 1 | 0 | 3 | –
4 | COc1nc(-c2cncc(F)c2)cnc1NC(=O)OC(C)(C)C [Compound H7] | 2 | 1 | 5 | 3 | 0 | 5 | 0 | 0 | 5 | 1 | 0 | 3 | –
5 | CSc1cncc(-c2cnc(NC(=O)OC(C)(C)C)c(SC)n2)c1 [Compound H25] | – | – | – | – | – | – | – | – | – | – | – | – | Control of weed species after post-emergence application, LOLPE (damage score 0-5) (Lolium perenne (LOLPE) [1]; Rate 250 g/ha): 1; Control of weed species after post-emergence application, TRAZW (damage score 0-5) ([2]; Rate 250 g/ha): 0; Control of weed species after post-emergence application, SETFA (damage score 0-5) (Setaria faberi (SETFA) [3]; Rate 250 g/ha): 1; Control of weed species after post-emergence application, AVEFA (damage score 0-5) (Avena fatua (AVEFA) [4]; Rate 250 g/ha): 1; Control of weed species after post-emergence application, ALOMY (damage score 0-5) ([5]; Rate 250 g/ha): 0; Control of weed species after post-emergence application, ECHCG (damage score 0-5) ([6]; Rate 250 g/ha): 1; Control of weed species after pre-emergence application, LOLPE (damage score 0-5) (Lolium perenne (LOLPE) [7]; Rate 250 g/ha): 0; Control of weed species after pre-emergence application, TRAZW (damage score 0-5) ([8]; Rate 250 g/ha): 0; Control of weed species after pre-emergence application, SETFA (damage score 0-5) (Setaria faberi (SETFA) [9]; Rate 250 g/ha): 0; Control of weed species after pre-emergence application, AVEFA (damage score 0-5) (Avena fatua (AVEFA) [10]; Rate 250 g/ha): 0; Control of weed species after pre-emergence application, ALOMY (damage score 0-5) ([11]; Rate 250 g/ha): 0; Control of weed species after pre-emergence application, ECHCG (damage score 0-5) ([12]; Rate 250 g/ha): 0
6 | COC(=O)c1nc(-c2cncc(F)c2)cnc1N(C(=O)OC(C)(C)C)C(=O)OC(C)(C)C [Compound H26] | 0 | 1 | 5 | 1 | 0 | 3 | 0 | 0 | 5 | 0 | 0 | 0 | –
7 | CC(C)(C)OC(=O)N(C(=O)OC(C)(C)C)c1ncc(-c2cncnc2)nc1C(F)F [Compound H31] | 2 | 1 | 5 | 3 | 1 | 5 | 0 | 0 | 2 | 1 | 2 | 2 | –
8 | CC(C)(C)OC(=O)Nc1ncc(-c2cncc(F)c2)nc1CO [Compound H22] | 1 | 0 | 2 | 1 | 0 | 1 | 0 | 0 | 0 | 0 | 0 | 0 | –
9 | Cc1nc(-c2cncc(F)c2)cnc1NC(=O)OC(C)(C)C [Compound H17] | 3 | 0 | – | 3 | 2 | 4 | 3 | 0 | 4 | 2 | 0 | 4 | –
